SMILES strings stand for the structures.

This experiment addresses T1, 5-lipoxygenase (Homo sapiens, UniProt P09917).
T1 construct: endogenous in cells; host or cells: leukocytes isolated from fresh human blood
T1 sequence (P09917 1-674): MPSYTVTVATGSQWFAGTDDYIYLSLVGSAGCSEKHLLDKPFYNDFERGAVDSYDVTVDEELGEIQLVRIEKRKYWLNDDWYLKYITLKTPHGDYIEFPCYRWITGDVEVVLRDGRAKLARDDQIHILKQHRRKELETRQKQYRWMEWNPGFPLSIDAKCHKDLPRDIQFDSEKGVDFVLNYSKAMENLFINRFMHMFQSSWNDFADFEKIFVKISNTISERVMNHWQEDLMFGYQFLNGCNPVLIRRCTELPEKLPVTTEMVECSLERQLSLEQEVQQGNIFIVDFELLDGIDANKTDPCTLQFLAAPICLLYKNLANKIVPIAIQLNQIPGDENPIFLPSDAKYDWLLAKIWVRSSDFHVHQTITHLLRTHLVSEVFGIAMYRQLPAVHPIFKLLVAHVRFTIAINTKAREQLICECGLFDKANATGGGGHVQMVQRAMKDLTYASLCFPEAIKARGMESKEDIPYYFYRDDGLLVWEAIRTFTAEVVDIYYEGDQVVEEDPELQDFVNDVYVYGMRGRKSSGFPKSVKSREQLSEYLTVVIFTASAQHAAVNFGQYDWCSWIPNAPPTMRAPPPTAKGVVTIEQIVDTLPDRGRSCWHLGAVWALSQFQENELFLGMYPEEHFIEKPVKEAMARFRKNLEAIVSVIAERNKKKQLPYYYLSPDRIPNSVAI
Description: 5-Lipoxygenase Assay Using Isolated Human Leukocytes (5LOA2). It counts as cell-based. The following applies: 20 μM exogenous arachidonic acid; read-out: IC50 5LOA (20)*. The protocol: 5-Lipoxygenase Assay Using Isolated Human Leukocytes (5LOA2)
The formation of 5-HETE in human leukocytes is considered a measure of 5-lipoxygenase activity. The protocol is described in the following.
Fresh heparinized or EDTA treated human blood is mixed with 6% dextran-3% dextrose in isotonic saline in the ratio 0.25 ml dextran solution per 1.0 ml blood. After mixing the blood is allowed to sit at room temperature for about 90 minutes while the RBC's settle. During this period, the plasma is removed with a plastic pipette to nalgens tubes.
The plasma is centrifuged at 800 rpm ([…]) on the Beckman Td-b refrigerated centrifuge to remove the platelets (which remain in the supernatant). The pellet, consisting of leukocytes and erythrocytes, is treated with 10 ml 0.87% ammonium chloride at room temperature for four minutes, lysing the red cells. At the end of four minutes the cells are diluted with a 2× volume of phosphate buffered saline, pH 7.4, and centrifuged for ten minutes. The cells are washed three times with the phosphate buffered saline. Any of the pelleted cell matter which is not easily resuspended is discarded during the washings--the material contains platelets (12-lipoxygenase activity).
After washing, the cells are resuspended in phosphate buffered saline containing 1.0 mM calcium and 0.5 mM magnesium. After counting the cells are diluted to 1.5-2.0×10^7 leukocytes per milliliter.
To each polypropylene reaction tube is added 0.48 ml leukocytes in Ca-Mg phosphate buffered saline, pH 7.4; 1-5 μl test compound dissolved in DMSO and buffer; or DMSO for control tubes.
The tubes preincubate at 37° C. for five minutes.
The reaction is started by adding 20 μl of the following, 0.5 μl 20 mM arachidonic acid--final concentration=20 μm; 1 μl 5 mM calcium ionophore A23187--final concentration=10 μm; and 18.5 μl buffer.
The reaction proceeds for five minutes, then is stopped by adding 0.5 ml 0.5 mM ice cold Tris buffer, pH 8.0. The tubes are chilled on ice for ten minutes and then extracted three times with a total of 3.5 ml ethyl acetate (3.0 ml removed).
The tubes can be stored at this point. For extended storage, the tubes should be filled with nitrogen.
The ethyl acetate is evaporated with a Sorvall Speed-Vac. The residue is dissolved in ethanol. The tubes can also be stored at this point at -20° C. under nitrogen.
A portion of the ethanol solution is injected into the HPLC system for 5-HETE quantitation.
The HPLC system consists of Hewlett-Packard 1040A UV spectrophotometry system with an HP85 computer. Injections are made automatically with a Waters WISP 710B. The pump is a Spectra Physics SP8700. Peaks are measured with a Hewlett Packard 3390A integrator. An RP C-18 column is used. The solvent system is isocratic; the solvent is 70% methanol and 30% 0.01M sodium acetate, pH 5.7, pumped at 1.0 ml/min. The flow is monitored at 235 nm for 5-HETE quantitation. Using a 15 cm Alltech Nucleosil C-18 5 μM column provides for a sample turnaround time of about 16 minutes.
IC50 is calculated as the amount of test agent that causes 50% inhibition of the formation of 5-HETE relative to the control.
By IC50 is commonly meant the concentration at which inhibition is half-maximal. Regarding `O=C(O)c1ccccc1-c1ccccc1C(=O)Nc1ccc(CCCc2ccc(Cl)c(Cl)c2)cc1` [Example 1, [1,1'-Biphenyl]-2-carboxylic acid, 2'-[[[4-[3-(3,4-dichlorophenyl)propyl]phenyl]amino]carbonyl]-], the IC50 was 6.7 µM.

In the case of `COc1ccc(CCc2ccc(NC(=O)c3ccccc3-c3ccccc3C(=O)O)cc2)cc1OC` [Example 7, [1,1'-Biphenyl]-2-carboxylic acid, 2'-[[[4-[2-(3,4-dimethoxyphenyl)ethyl]phenyl]amino]carbonyl]-], the IC50 is greater than 20 µM.

Consider `O=C(O)c1ccccc1-c1ccccc1C(=O)Nc1ccc(Cc2ccc(Cl)c(Cl)c2)cc1` [Example 9], for which the IC50 came out at 19 µM.

In the case of `O=C(O)c1ccccc1-c1ccccc1C(=O)Nc1ccc(CCCCc2ccc(Cl)c(Cl)c2)cc1` [Example 15, [1,1'-Biphenyl]-2-carboxylic acid, 2'-[[[4-[4-(3,4-dichlorophenyl)butyl]phenyl]amino]carbonyl]-], the IC50 was found to be 4.6 µM.

As for `O=C(O)c1ccccc1-c1ccccc1C(=O)Nc1ccc(CCCc2ccccc2)cc1` [Example 16, [1,1'-Biphenyl]-2-carboxylic acid, 2'-[[[4-(3-phenylpropyl]phenyl]amino]carbonyl]-], the IC50 amounted to 22 µM.

`O=C(O)c1ccccc1-c1ccccc1C(=O)Nc1ccc(CCCCc2ccccc2)cc1` [Example 19, [1,1'-Biphenyl]-2-carboxylic acid, 2'-[[[4-(4-phenylbutyl)phenyl]amino]carbonyl]-]: the IC50 came out at 7.2 µM.

Values taken from patent publication US4786755A, “Diphenic acid monoamides” (Warner-Lambert Company, priority 1986, dated 1988).
